Data from patent publication US20230296625A1, “CXCL14 AS PREDICTIVE BIOMARKER FOR ACUTE LIVER FAILURE AND DEATH” (University of Kansas, priority 2022, published 2023).
Read-outs that look alike come from different tables or passages of the source.

What was measured:
[1] = system: fasted male C57BL/6J mice; conditions: mouse, in vivo
Procedure: The liver and plasma samples were collected between 6-72 hours after acetaminophen exposure.
ALT assay plasma alanine aminotransferase (ALT) activities were measured using an ALT test kit (Point Scientific, Inc, Canton, MI) per the manufacturer’s instruction.

[2] = system: acetaminophen overdose patients; conditions: human, in vivo
Procedure: A series of experiments were performed in order to evaluate the relevance of the findings from the mouse model (FIGS. 1A-1C), and whether the data can be relevant to humans. Plasma samples ([…]) were from acetaminophen overdose patients, where the plasma samples include 10 survivors with low injury, 30 survivors with high injury and 19 non-survivors. 10 healthy volunteer plasma samples were also obtained for comparison. Patients were categorized based on alanine amino transferase (ALT) level, with survivors with very mild ALT elevations at < 100 U/L categorized as low injury and survivors with peak ALT of 6200 U/L categorized as high injury.
Since the time from acetaminophen exposure until the patient going to the clinic for treatment is highly variable, the day of peak ALT as day 1 was set for all patients to streamline data.
We measured CXCL14 in plasma of acetaminophen-induced injury patients for three days. To make the data more reliable due to the complicated admission day and time of acetaminophen being taken, Day 1 is chosen as the day of peak ALT. We observed no CXCL14 increase in low injury patients (<100 pg/mL). […] In contrast, we found CXCL14 level is significant increased at day 1 (7000 pg/mL), but its level keep elevated by day 3 (8000 pg/mL) with a much higher level compared to the survivors (FIG. 2B). Next, we want to determine whether CXCL14 level in plasma can predict patient outcome.
All results were expressed as mean ± SE. Comparisons between multiple groups were performed with one-way ANOVA or, where appropriate, by two-way ANOVA, followed by a post hoc Bonferroni test. If the data were not normally distributed, we used the Kruskal-Wallis Test (nonparametric ANOVA) followed by Dunn’s Multiple Comparisons Test. P < 0.05 was considered significant. Receiver operating characteristic analysis curve was performed to determine optimal threshold values to discriminate between survivors and non-survivors.

human liver = conditions: in vivo
Procedure: A western blot analysis on the removed liver from a transplant recipient after acetaminophen overdose was carried out to determine whether circulating CXCL14 levels also reflected levels within the human liver. […] Therefore, the biological sample can be a blood sample (or plasma) or a liver sample.
Histology and Immunohistochemistry Formalin-fixed human and mouse tissue samples were embedded in paraffin and 5 µm sections were cut. Sections were stained with hematoxylin and eosin (H&E) for evaluation of the areas of necrosis. Additional liver sections were hydrated and went through antigen retrieval by boiling in sodium citrate buffer (pH 6.0). Liver sections were blocked in 3% BSA and serum then incubated with the primary antibodies overnight. Primary antibodies included anti-rabbit CD68 (Cell Signaling Technology, cat # 26042). Liver sections were washed and incubated in 3% hydrogen peroxide to block endogenous peroxidases. Biotinylated secondary antibody and DAB substrate were used to visualize the signals. Immunofluorescence staining was performed using 5 µm cryosections prepared from OCT-embedded tissue. Sections were blocked with 3% BSA and stained with anti-rabbit CXCL14 (Abcam, cat #264467). Fluorescence conjugated secondary antibodies Alexa Fluor 488 (Invitrogen, cat #A11034) goat anti rabbit was used.
Western blotting snap frozen tissue was homogenized in a CHAPs containing protein buffer and total protein was measured using the BCA assay (Pierce Scientific, Waltham, Massachusetts). Gel electrophoresis was carried out on protein lysates from individual samples, which were then transferred to a nitrocellulose blot.

Structure (SMILES): CC(=O)Nc1ccc(O)cc1 [acetaminophen, N-acetyl-p-aminophenol]
- plasma ALT levels ([1]; 300 mg/kg): return to baseline in both doses by 72 hours
- plasma ALT levels ([1]; 600 mg/kg): return to baseline in both doses by 72 hours
- ALT elevations [2]: < 100 U/L
- bilirubin [2]: 12.5 mg/dL
- prothrombin times [2]: significantly higher
- ALT (human liver): 1620.9 U/L
- hepatic levels of CXCL14 (western blot) (human liver): Elevation in hepatic levels of CXCL14 are evident
- macrophage staining with CD68 (human liver): significant increase in macrophage staining
- necrosis by H&E staining (human liver): significant areas of necrosis
- staining for CXCL14 in liver sections (human liver): significant elevations
